Measured values as given in publication PMC7732128, “Regulation of gene transcription by thyroid hormone receptor β agonists in clinical development for the treatment of non-alcoholic steatohepatitis (NASH)” (PLoS ONE, 2020).
Read-outs that look alike come from different tables or passages of the source.

What was measured:
[1] = tested on: THR (THRSP RNA in PHH); assay: Differential gene expression assay in primary human hepatocytes (PHH); type: cell-based; settings: Hepatocyte, RT-qPCR, 24 hrs treatment, read-out: PHH EC50 Mean ± SEM
[2] = tested on: THR (ANGPTL4, CPT1A, DIO1 RNA in Huh-7 cells); assay: Differential gene expression assay in Huh-7 cells; type: cell-based, human; settings: Homo sapiens
Protocol: Hepatoma-derived Huh-7 cells (JCRB Cell Bank, JCRB0403) were obtained directly from the repository, which performed cell line authentication via isozyme analysis and comprehensively tested for microbial contamination, viral contamination, and cross culture contamination. Cells were routinely cultured in DMEM (Corning, 10-013-CM) supplemented with 10% FBS and 1% P/S at 37°C and 5% CO2 until 80–90% confluency. Cells were then detached with 0.05% trypsin (Corning, 25-052-CV), resuspended in TH-free medium (DMEM supplemented with 10% TH-depleted FBS and 1% P/S), and seeded into collagen-coated, 96-well microplates (Corning, 354407) at 5.0 x 10^4 cells/well. After 24 hrs, the culture medium was replaced with treatment media. Cells were treated for 24 hrs. TH-depletion of the FBS via resin treatment was accomplished as previously described. All treatment media were made by mixing test compounds, serially diluted in DMSO, with TH-free medium (0.1% final DMSO concentration).
After 24 hrs in treatment media, both Huh-7 cells and PHH were processed with the TaqMan Fast Advanced Cells-to-Ct Kit (Invitrogen, A35378), according to the manufacturer’s protocol. Briefly, the treatment media was removed and the cells were washed with 50 μL cold 1X phosphate-buffered saline (Corning, 21-040-CM). Fifty μL lysis buffer containing DNase I was added to each well and the plate was incubated on a rotor at RT for 5 mins. Five μL stop solution was then added to each well and after another 2 mins incubation on a rotor at RT, the cell lysates were used for reverse transcription. The resulting cDNA was diluted 1:2 with nuclease-free, distilled water (Invitrogen, 10977015). Gene expression was measured using TaqMan Fast Advanced Master Mix (Applied Biosystems, 4444964) and the following TaqMan Gene Expression assays (Applied Biosystems, 4331182): 18S (Hs99999901_s1), ACTB (Hs01060665_g1), ANGPTL4 (Hs01101123_g1), CPT1A (Hs00912671_m1), DIO1 (Hs00174944_m1), TFG (Hs02832013_g1), THRA (Hs00268470_m1), and THRB (Hs00230861_m1). ACTB and TFG served as control housekeeping genes for Huh-7 assays and 18S and ACTB for PHH assays. Ten μL reactions were run on the qTOWER³ 84 (Analytik Jena). Relative quantification (RQ) of gene expression was calculated via the 2^−ΔΔCt method and dose-response curves were fitted by non-linear regression with variable slope. Statistical analysis was performed in GraphPad Prism 8.
We aimed to develop an in vitro, cell-based assay that is not only amenable to high throughput screening of compounds, but that can also more reliably recapitulate in vivo processes. Because activated THR may function as a transcription factor, we compared the action of THR agonists in a human hepatocyte-derived cell line and in primary human hepatocytes (PHH) by quantifying transcriptional changes resulting from compound treatment (Fig 2A). Cells were cultured in TH-depleted media for 24 hrs and then treated with compounds for 24 hrs. The RNA levels of THR target genes were then measured via RT-qPCR.

[3] = tested on: HFD fed rats; assay: High-fat diet fed rat study: serum and hepatic lipid levels; type: in vivo; settings: 0.5 mg/kg I.P. single dose
Protocol: Animals were purchased from Vital River Laboratory Animal Technology Co. Ltd. and experiments were conducted at Covance Pharmaceutical R&D (Shanghai) Co., Ltd. (China). Animals were group-housed in polycarbonate cages with corncob bedding under controlled temperature (21–25°C), humidity (40–70%), and a 12-hr light/dark cycle. All procedures performed were in compliance with local animal welfare legislation, Covance global policies and procedures, and the Guide for the Care and Use of Laboratory Animals.
Eighty-four male Sprague Dawley rats, approximately 8 to 11 weeks of age, were fed with either a normal diet, ND (D12450K: 10 kcal% fat, no sucrose), or high-fat diet, HFD (D12109C: 40 kcal% fat, 1.25 gm% cholesterol, 0.5 gm% sodium cholate, 12.5 gm% sucrose). After 12 days of diet consumption, baseline serum total cholesterol and low-density lipoprotein cholesterol (LDL-C) levels were measured with the cobas 6000 c501 Chemistry Analyzer (Roche) to confirm hypercholesterolemia in the HFD fed rats. Animals were then randomized into treatment groups.
Twenty-four hrs after dosing, animals were euthanized by CO2 inhalation and serum and plasma were collected along with liver tissue. Serum total cholesterol and LDL-C levels were determined as described above. […] Caudate lobes of the liver were used for analysis of hepatic total cholesterol (Abcam, ab65390) and triglyceride levels (Abcam, ab65336) via enzyme-linked immunosorbent assay. Right lateral lobes were stored in RNAlater (Invitrogen, AM7020) at -70°C until homogenization with the Scientz-48 TissueLyser LT for downstream gene expression analysis. RNA extraction was performed at WuXi AppTec (Hong Kong) Limited (China) with the RNeasy Mini Kit (Qiagen, 74106) and RNA concentration and quality was determined using the Nanodrop 2000 (Thermo Scientific); additional quality control was assessed with agarose gel electrophoresis. One μg total RNA from each sample was then reverse-transcribed using the High Capacity cDNA Reverse Transcription kit (Applied Biosystems, 4368814) and the resulting cDNA was diluted 1:5 with nuclease-free, distilled water. Gene expression was measured using TaqMan Fast Advanced Master Mix and the following TaqMan Gene Expression assays: Actb (Rn00667869_m1), Cpt1a (Rn00580702_m1), Dio1 (Rn00572183_m1), Me1 (Rn00561502_m1), Rplp1 (Rn03467157_gH), and Thrsp (Rn01511034_m1). Actb and Rplp1 served as control housekeeping genes. Ten μL reactions were run on the qTOWER³ 84. Relative quantification (RQ) of gene expression was calculated via the 2^−ΔΔCt method and statistical analysis was performed in GraphPad Prism 8.0 and Microsoft Excel.

[4] = Huh-7, CPT1A RNA, RT-qPCR, 24 hrs treatment, read-out: Huh-7 EC50 Mean ± SEM
[5] = Huh-7, 24 hrs, n = 2 (Fig 2C), read-out: mean EC50, ANGPTL4
[6] = Huh-7, 24 hrs, n = 2 (Fig 2C), read-out: mean EC50, CPT1A
[7] = Huh-7, 24 hrs, n = 2 (Fig 2C), read-out: mean EC50, DIO1

Q: How did the EC50 [1] turn out when `Cc1cc(OCC(=O)O)cc(C)c1Cc1ccc(O)c(C(C)C)c1` [GC-1, sobetirome] was run?
A: Its EC50 is […].

Q: What about the EC50 [2, 4] of the same compound?
A: Its EC50 is […].

Q: And the EC50 [2, 5]?
A: Its EC50 is […].

Q: What about the EC50 [2, 6] of the same compound?
A: The EC50 was […].

Q: What does the source list for `N[C@@H](Cc1cc(I)c(Oc2ccc(O)c(I)c2)c(I)c1)C(=O)O` [T3, triiodothyronine]?
A: EC50 [1]: […]; EC50 [2, 4]: […]; EC50 [2, 5]: […]; EC50 [2, 6]: […]; EC50 [2, 7]: […]; decrease in serum total cholesterol (pre-dose vs 24 hrs post-dose) [3]: 68.2%; decrease in serum triglyceride levels (pre-dose vs 24 hrs post-dose) [3]: 71.2%
